The record followed here is ChEMBL document CHEMBL3991601, “The target landscape of clinical kinase drugs” (Science, 2017).

Structures are written as SMILES. Activity calls are given as the source filed them. On the calls: in the data inactive means no Kd found up to 30 µM. Where only a bound is given, the exact number is not on record here.

For test [1], the target named is MAP kinase-activated protein kinase 3 (Homo sapiens, UniProt Q16644).
Test [2] concerns the target Serine/threonine-protein kinase 24 (Homo sapiens, UniProt Q9Y6E0).
Test [3] deals with Tyrosine-protein kinase Fgr (Homo sapiens, UniProt P09769).
Sequence of Tyrosine-protein kinase Fgr (P09769 whole entry): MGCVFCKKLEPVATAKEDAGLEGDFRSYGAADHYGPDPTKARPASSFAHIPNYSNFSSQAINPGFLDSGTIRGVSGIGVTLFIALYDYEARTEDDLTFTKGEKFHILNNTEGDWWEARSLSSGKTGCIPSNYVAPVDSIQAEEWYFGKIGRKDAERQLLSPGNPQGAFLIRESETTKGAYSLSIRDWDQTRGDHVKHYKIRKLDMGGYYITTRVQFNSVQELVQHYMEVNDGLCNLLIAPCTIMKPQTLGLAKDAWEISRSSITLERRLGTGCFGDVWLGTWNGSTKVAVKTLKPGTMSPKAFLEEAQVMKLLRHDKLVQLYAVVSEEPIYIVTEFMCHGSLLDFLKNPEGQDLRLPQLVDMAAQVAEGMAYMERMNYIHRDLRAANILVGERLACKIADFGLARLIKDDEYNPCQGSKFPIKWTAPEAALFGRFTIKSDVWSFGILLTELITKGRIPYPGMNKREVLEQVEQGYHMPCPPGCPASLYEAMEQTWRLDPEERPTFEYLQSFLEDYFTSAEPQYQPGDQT
The target in test [4] is T1, Isoleucine--tRNA ligase, mitochondrial (Homo sapiens, UniProt Q9NSE4).
T1 sequence (Q9NSE4 whole entry): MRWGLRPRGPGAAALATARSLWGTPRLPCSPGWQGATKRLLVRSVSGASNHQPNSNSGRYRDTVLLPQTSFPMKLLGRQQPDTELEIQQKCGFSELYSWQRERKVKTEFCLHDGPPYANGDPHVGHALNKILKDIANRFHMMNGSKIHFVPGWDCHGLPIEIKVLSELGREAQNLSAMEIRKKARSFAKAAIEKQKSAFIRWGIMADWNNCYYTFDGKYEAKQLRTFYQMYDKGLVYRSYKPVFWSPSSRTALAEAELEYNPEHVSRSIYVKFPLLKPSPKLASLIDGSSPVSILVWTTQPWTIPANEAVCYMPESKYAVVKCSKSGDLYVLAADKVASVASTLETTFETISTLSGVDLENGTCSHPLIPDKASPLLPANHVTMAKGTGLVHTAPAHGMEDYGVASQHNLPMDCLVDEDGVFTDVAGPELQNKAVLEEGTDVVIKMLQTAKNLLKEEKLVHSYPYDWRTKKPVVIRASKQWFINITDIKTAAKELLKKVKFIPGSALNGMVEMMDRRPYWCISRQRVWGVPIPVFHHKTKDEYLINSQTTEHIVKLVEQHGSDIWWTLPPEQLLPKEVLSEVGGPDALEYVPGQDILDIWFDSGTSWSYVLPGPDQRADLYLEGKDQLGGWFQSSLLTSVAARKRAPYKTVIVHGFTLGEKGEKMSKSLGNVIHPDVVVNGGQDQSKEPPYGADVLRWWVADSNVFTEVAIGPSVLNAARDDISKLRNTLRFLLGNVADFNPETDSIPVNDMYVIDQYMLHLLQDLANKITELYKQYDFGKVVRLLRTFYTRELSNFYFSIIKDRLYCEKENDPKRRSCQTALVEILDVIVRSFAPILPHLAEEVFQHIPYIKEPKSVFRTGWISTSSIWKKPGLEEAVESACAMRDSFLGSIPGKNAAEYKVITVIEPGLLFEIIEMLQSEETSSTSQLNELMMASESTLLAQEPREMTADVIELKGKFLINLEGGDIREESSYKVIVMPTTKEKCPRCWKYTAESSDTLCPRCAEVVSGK

In test [5] the target is T2, Cyclin-dependent kinase-like 5 (Homo sapiens, UniProt O76039).
T2 sequence (O76039 whole entry): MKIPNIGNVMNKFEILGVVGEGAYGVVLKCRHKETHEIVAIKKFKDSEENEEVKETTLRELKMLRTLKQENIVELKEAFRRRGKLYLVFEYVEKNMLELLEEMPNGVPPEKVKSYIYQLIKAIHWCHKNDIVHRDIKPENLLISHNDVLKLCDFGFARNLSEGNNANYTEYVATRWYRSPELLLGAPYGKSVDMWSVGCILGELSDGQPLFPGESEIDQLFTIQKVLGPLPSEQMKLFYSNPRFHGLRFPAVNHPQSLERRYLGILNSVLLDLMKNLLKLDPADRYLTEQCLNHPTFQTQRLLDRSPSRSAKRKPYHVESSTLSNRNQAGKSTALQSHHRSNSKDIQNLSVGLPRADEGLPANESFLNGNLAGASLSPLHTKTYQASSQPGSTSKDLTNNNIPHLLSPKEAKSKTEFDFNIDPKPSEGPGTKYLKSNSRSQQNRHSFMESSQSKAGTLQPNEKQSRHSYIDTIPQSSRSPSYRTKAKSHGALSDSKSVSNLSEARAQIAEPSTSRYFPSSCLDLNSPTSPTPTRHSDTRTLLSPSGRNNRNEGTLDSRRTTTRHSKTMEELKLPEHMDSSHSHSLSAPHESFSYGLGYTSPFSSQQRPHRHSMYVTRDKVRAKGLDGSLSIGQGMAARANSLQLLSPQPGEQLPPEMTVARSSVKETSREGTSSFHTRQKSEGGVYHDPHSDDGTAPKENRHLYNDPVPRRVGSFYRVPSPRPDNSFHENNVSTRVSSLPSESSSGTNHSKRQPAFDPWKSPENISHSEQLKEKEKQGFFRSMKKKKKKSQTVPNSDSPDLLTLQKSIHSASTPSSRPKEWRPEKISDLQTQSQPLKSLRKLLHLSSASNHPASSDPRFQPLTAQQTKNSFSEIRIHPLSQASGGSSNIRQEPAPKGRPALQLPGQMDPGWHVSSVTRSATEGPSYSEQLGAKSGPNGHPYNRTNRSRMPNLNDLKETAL

The target of test [6] is Dual specificity protein kinase CLK4 (Homo sapiens, UniProt Q9HAZ1).
Sequence of Dual specificity protein kinase CLK4 (Q9HAZ1 whole entry): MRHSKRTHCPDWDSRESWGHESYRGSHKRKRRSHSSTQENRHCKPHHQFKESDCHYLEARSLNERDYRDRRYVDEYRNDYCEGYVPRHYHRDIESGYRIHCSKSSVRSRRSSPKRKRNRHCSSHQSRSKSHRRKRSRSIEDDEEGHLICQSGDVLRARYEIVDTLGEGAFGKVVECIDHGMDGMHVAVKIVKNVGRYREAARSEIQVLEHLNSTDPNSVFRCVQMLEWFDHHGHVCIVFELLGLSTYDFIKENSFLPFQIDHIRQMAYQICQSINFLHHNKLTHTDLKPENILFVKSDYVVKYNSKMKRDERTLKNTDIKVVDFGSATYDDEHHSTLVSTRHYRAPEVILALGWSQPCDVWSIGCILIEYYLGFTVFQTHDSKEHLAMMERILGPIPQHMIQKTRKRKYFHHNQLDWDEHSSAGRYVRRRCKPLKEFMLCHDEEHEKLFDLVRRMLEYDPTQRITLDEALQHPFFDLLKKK
The target of test [7] is Eukaryotic peptide chain release factor GTP-binding subunit ERF3B (Homo sapiens, UniProt Q8IYD1).
Sequence of Eukaryotic peptide chain release factor GTP-binding subunit ERF3B (Q8IYD1 whole entry): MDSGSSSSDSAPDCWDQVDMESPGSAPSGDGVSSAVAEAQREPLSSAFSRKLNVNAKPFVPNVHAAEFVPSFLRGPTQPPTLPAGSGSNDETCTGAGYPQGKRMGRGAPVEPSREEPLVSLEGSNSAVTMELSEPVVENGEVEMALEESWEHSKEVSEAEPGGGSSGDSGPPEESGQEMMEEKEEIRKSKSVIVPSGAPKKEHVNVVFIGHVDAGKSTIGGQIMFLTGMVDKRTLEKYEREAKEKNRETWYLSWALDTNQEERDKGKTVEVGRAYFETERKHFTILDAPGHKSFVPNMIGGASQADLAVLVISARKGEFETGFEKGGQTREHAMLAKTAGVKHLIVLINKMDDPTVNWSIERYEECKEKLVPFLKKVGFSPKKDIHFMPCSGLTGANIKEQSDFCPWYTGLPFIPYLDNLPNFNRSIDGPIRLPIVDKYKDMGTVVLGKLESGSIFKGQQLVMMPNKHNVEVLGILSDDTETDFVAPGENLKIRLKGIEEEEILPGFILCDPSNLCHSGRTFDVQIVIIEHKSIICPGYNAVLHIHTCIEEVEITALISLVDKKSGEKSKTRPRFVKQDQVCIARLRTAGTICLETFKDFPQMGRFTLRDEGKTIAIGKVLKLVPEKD
The target of test [8] is Tyrosine-protein kinase JAK2 (Homo sapiens, UniProt O60674).
Test [9] concerns the target Dual specificity tyrosine-phosphorylation-regulated kinase 1B (Homo sapiens, UniProt Q9Y463).
For test [10], the target named is Serine/threonine-protein kinase 38 (Homo sapiens, UniProt Q15208).
Sequence of Serine/threonine-protein kinase 38 (Q15208 whole entry): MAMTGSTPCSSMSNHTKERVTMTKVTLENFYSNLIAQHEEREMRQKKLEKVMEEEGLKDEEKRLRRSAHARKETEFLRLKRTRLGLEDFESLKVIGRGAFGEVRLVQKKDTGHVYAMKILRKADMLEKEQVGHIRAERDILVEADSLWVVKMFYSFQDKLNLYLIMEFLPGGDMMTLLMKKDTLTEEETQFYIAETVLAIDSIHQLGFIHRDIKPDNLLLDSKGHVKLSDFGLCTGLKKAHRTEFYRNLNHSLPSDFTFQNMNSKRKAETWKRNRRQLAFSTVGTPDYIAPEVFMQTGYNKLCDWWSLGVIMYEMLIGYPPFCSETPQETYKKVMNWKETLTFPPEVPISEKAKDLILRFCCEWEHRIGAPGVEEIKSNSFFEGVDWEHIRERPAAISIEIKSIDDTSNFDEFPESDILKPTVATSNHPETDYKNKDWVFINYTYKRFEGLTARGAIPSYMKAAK
For test [11], the target named is Cyclin-dependent kinase 10 (Homo sapiens, UniProt Q15131).
Sequence of Cyclin-dependent kinase 10 (Q15131 whole entry): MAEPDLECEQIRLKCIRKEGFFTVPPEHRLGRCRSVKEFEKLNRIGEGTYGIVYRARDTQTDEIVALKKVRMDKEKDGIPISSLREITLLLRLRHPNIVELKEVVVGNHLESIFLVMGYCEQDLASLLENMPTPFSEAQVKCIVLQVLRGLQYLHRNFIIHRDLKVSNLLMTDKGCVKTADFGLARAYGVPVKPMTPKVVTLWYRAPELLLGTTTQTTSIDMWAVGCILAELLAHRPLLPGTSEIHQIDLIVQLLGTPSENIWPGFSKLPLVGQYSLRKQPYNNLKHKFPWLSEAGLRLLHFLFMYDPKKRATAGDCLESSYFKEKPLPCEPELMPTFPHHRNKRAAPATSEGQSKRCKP
The target in test [12] is Cell division cycle 7-related protein kinase (Homo sapiens, UniProt O00311).
Sequence of Cell division cycle 7-related protein kinase (O00311 whole entry): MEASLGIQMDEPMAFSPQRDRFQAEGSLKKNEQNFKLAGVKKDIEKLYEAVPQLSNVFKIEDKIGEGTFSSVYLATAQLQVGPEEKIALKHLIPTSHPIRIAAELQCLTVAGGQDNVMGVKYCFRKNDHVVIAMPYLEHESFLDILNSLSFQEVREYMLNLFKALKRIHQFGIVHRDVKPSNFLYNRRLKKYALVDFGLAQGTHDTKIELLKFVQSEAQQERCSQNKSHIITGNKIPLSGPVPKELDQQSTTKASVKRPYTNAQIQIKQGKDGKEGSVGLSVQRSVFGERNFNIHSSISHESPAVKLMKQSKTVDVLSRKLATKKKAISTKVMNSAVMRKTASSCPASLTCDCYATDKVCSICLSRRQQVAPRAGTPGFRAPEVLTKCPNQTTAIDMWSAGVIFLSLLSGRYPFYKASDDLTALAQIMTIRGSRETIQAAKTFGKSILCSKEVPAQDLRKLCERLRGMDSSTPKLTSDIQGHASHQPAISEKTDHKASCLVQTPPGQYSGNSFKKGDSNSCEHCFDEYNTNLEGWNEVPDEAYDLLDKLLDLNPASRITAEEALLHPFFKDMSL

Sequence of Dual specificity tyrosine-phosphorylation-regulated kinase 1B (Q9Y463 whole entry): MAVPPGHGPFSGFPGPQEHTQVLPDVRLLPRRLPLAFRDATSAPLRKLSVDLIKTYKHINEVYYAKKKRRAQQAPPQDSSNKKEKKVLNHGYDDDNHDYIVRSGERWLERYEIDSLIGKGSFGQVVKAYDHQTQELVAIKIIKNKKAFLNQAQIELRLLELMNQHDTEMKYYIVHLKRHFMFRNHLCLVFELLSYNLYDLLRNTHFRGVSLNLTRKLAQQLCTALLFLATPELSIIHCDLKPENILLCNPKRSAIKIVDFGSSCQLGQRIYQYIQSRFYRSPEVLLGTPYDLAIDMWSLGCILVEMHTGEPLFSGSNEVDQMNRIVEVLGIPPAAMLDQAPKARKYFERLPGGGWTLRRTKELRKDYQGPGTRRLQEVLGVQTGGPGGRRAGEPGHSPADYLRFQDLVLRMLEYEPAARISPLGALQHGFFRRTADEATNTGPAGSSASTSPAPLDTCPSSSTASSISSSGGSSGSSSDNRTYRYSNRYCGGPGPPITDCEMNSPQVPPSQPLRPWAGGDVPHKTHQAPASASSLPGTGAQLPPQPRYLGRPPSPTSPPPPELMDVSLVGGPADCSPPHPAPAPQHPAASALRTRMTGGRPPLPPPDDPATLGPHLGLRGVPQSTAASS
Sequence of MAP kinase-activated protein kinase 3 (Q16644 whole entry): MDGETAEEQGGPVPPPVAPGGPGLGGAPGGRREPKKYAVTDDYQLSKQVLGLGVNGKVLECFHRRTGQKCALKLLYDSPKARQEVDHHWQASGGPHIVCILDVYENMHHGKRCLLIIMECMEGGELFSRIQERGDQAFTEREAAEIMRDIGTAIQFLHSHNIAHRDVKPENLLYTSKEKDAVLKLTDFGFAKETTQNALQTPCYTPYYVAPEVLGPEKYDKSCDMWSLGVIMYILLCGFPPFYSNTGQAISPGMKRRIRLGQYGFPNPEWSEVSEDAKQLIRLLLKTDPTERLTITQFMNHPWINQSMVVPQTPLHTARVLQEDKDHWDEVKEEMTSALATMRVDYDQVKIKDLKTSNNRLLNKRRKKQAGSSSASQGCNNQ
Sequence of Serine/threonine-protein kinase 24 (Q9Y6E0 whole entry): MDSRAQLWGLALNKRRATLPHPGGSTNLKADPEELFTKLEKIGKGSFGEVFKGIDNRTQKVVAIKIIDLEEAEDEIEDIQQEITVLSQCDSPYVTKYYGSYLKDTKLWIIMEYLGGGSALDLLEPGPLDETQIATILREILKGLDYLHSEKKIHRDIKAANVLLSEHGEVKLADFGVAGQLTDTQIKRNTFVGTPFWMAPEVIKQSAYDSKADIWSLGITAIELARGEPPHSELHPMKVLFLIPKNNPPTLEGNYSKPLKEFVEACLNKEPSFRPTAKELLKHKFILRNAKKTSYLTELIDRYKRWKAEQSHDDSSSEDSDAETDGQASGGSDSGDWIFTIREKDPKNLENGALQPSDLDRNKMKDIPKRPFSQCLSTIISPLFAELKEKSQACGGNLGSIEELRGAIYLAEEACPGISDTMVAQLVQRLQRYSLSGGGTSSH

Turning to `Cc1nc2cc(-c3nn(C(C)C)c4ncnc(N)c34)ccc2o1`, the Kd in [1], in test [2], in test [3], in [4], in test [5] and in test [6] was > 30 µM (inactive) in each case. Further, the Kd in test [7] and in test [8] was > 30 µM (inactive) in each case.
As to `C=CC(=O)Nc1cc2c(Nc3ccc(F)c(Cl)c3)ncnc2cc1C#CC(C)(C)N1CCN(C)CC1` [AV-412 FREE BASE], the Kd in [1], in test [5], in test [6] and in test [9] was > 30 µM (inactive) in each case.
Regarding `Cc1cc(Nc2ncc(Cl)c(Nc3ccccc3S(=O)(=O)C(C)C)n2)c(OC(C)C)cc1C1CCNCC1` [CERITINIB], the Kd in test [1], in test [5], in [9] and in test [10] was > 30 µM (inactive) in each case.
On to `CC(C)(C)c1nc(-c2cccc(NS(=O)(=O)c3c(F)cccc3F)c2F)c(-c2ccnc(N)n2)s1` [DABRAFENIB], for which the Kd – broadly, the concentration at which binding is half-saturated – was > 30 µM (inactive) in test [1]; > 30 µM (inactive) in test [2]; 1.55 µM (active) in test [3]; > 30 µM (inactive) in [11]; > 30 µM (inactive) in test [4]; > 30 µM (inactive) in test [5]. Moreover, the Kd in test [6], in test [7], in test [9] and in test [12] was > 30 µM (inactive) each time.
Consider `Cc1nc2cc(-n3ncc(C(=O)c4cc5ccccc5[nH]4)c3N)ccc2[nH]1` [FGFR INHIBITOR DEBIO 1347], for which the Kd in [2], in [3], in test [4], in test [5] and in test [12] was > 30 µM (inactive) each time.
Regarding `COc1ccc(S(=O)(=O)N(C(C)=O)c2ccccc2/C=C/c2cc[n+]([O-])cc2)cc1` [HMN-214], the Kd in test [2], in [3], in test [5], in [6] and in test [12] was > 30 µM (inactive) throughout.
Turning to `NC1(c2ccc(-c3nc4ccn5c(=O)[nH]nc5c4cc3-c3ccccc3)cc2)CCC1` [MK-2206], the Kd in [1], in test [2], in test [4], in [9] and in test [12] was > 30 µM (inactive) each time.
For the compound `Cc1[nH]c(/C=C2\C(=O)Nc3ccccc32)c(C)c1CCC(=O)O` [ORANTINIB], the Kd in test [3], in [11], in [4] and in test [5] was > 30 µM (inactive) each time.
As for `NC(=O)c1c(OCc2c(F)cc(Br)cc2F)nsc1NC(=O)NCCCCN1CCCC1` [OSI-632], the Kd in [3], in test [5] and in test [10] was > 30 µM (inactive) throughout.
Turning to `N#CC1(c2ccc(NC(=O)c3cccnc3NCc3ccncc3)cc2)CCCC1` [RIVOCERANIB], the Kd in test [2], in test [4], in test [5], in test [6], in test [8] and in test [9] was > 30 µM (inactive) each time. The Kd in test [12] was > 30 µM (inactive).
Turning to `Cn1cc(-c2cnn3c(N)c(Br)c([C@@H]4CCCNC4)nc23)cn1` [SCH-900776], the Kd in test [3], in test [5], in [6], in [12] and in [10] was > 30 µM (inactive) each time.
Regarding `C[C@@H](NC(=O)c1ncnc(N)c1Cl)c1ncc(C(=O)Nc2cc(C(F)(F)F)c(Cl)cn2)s1` [TOVORAFENIB], the Kd in test [2], in test [11], in test [5], in test [6], in test [9] and in test [12] was > 30 µM (inactive) in each case.
